Results: PubChem BioAssay AID651672 (The Scripps Research Institute Molecular Screening Center, 2012)
Calls of active or inactive are those of the source. No rule for the calls is given here.

biological target: Perilipin-1 (Homo sapiens) (UniProt O60240); test: ABHD5 and perilipin-1 interaction blockers – biochemical, luminescence, counter-screen for ABHD5-PLIN5 interaction inhibitor project, dose response (AID 651672); conditions: ABHD5-PLIN1 interaction;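 also: split Gaussia luciferase complementation between ABHD5 and PLIN1 fusion fragments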
Sequence (O60240 whole entry, looked up, the tested form may be a part): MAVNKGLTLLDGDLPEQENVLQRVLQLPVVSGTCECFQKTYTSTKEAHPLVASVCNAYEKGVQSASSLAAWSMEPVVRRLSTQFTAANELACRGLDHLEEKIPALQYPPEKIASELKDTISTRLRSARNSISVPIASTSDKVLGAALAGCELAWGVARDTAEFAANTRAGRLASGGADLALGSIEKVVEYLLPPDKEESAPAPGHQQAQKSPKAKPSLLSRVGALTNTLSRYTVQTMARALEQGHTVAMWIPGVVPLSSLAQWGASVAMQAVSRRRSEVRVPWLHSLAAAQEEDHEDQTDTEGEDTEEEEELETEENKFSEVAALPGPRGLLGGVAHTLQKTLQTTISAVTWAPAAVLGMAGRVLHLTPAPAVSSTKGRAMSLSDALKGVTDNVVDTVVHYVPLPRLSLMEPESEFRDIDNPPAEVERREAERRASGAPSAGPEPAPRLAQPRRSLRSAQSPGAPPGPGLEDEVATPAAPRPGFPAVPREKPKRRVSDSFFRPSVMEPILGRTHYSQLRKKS

Row | SMILES | IC50
1 | COc1cccc2sc(N(CCCN(C)C)C(=O)COc3ccc(Cl)cc3)nc12 | inactive
2 | CCOc1cc(/C=C2\CCC/C(=C\c3cc(Cl)c(O)c(OCC)c3)C2=O)cc(Cl)c1O | 3.88 µM
3 | CCCCCNC(=O)C(c1ccc(C(F)(F)F)cc1)n1c(=O)c(-c2ccco2)nc2ccccc21 (centres undefined) | 2.91 µM
4 | Cc1ccc(O)c(C(=O)/C=C/c2ccc3c(c2)OCCCO3)c1 | 4.63 µM
5 | CCOC(=O)C1CCCN(C(=O)c2cc(Nc3ccc(OC)cc3)nc3ccccc23)C1 (centres undefined) | inactive
6 | CC1=CC(C)(C)Nc2ccc(OC(=O)CN3C(=O)CCC3=O)cc21 | 1.72 µM
7 | Cc1cc(C)c2nc(NNC(=O)c3ccc(S(=O)(=O)N4CCCC(C)C4)cc3)sc2c1 (centres undefined) | 3.01 µM
8 | COc1ccccc1-c1cc(C(=O)NC2CCN(C)CC2)c2ccc(Cl)c(C)c2n1 | inactive
9 | C#CCN(C[C@@H]1[C@@H](OC(=O)NCc2ccc(OC)c(OC)c2)[C@@H](OC(=O)NCc2ccc(OC)c(OC)c2)Cn2c(=O)ccc(=O)n21)S(=O)(=O)c1ccc(C)cc1 | 4.59 µM
10 | CCCc1nc(C)c2c(=O)[nH]c(-c3cc(S(=O)(=O)N4CCN(CC)CC4)ccc3OCC)nn12 | 2.45 µM
11 | C=C1C(=O)O[C@H]2C[C@H]1[C@@H](OC(C)=O)C/C(C)=C/CC/C(C)=C\CC[C@]2(C)O | 1.87 µM
12 | Cc1nc2c(o1)CCc1ccccc1C2N1CCN(C)CC1 (centres undefined) | inactive
13 | CCc1nnc(NC(=O)c2nc(S(=O)(=O)Cc3cccc(C)c3)ncc2Cl)s1 | 3.29 µM
14 | CN(C)CCOc1ccc(/C(=C(/CCCl)c2ccccc2)c2ccccc2)cc1 | 1.14 µM
15 | Cc1cc(C)c(C(CC(=O)c2cccs2)C(C#N)C#N)c(C)c1 (centres undefined) | 6.74 µM
16 | C#CCOCCOCCOCCNc1nc(N2CCN(C(=O)CCCCCCCCCCNC(=O)[C@@H](CCSC)n3cc(CCO)nn3)CC2)nc(N2CCN(C(=O)CCCCCCCCCCNC(=O)[C@@H]([C@H](C)O)n3cc(C)nn3)CC2)n1 | inactive
17 | CC(=O)Oc1c(Cl)cc(N(C(C)=O)S(=O)(=O)c2ccccc2)c2ccccc12 | 3.88 µM
18 | O=C1NC(=S)NC(=O)C12C(c1ccccc1)NC(=S)NC2c1ccccc1 (centres undefined) | 4.34 µM
19 | Cc1cccc(C)c1NC(=O)C(c1ccc(C(F)(F)F)cc1)n1c(=O)c(-c2ccco2)nc2ccccc21 (centres undefined) | 2.22 µM
20 | CCOC(=O)N1CCN(C(=O)C[C@@H]2C[C@@]3(C(=O)OCC)CCC=C3N(Cc3ccc(Cl)cc3Cl)C2=O)CC1 | 9.78 µM
21 | CCCNC(=O)Nc1ccc2c(c1)N(C)C(=O)c1ccccc1S2 | 4.98 µM
22 | CC(=O)Nc1ccc(OCc2cn(CC(=O)c3ccc(O)cc3)nn2)cc1 | 2.47 µM
23 | O=C(/C=C/c1ccc2c(c1)OCCCO2)c1ccccc1O | 5.52 µM
24 | CN(C)CCN(Cc1ccco1)c1ccccn1 | inactive
25 | O=C(NCc1ccccc1)C(c1cccc2ccccc12)n1c(=O)c(-c2ccco2)nc2ccccc21 (centres undefined) | 2.06 µM

Row | SMILES | IC50
26 | CC(CCc1ccco1)NC(=O)CCc1nnc2ccc(NCc3ccccc3Cl)nn12 (centres undefined) | 2.03 µM
27 | Oc1c(C(c2ccccc2)N2CCCCC2)ccc2ccccc12 (centres undefined) | 1.01 µM
28 | CC(C)(C)NC(=O)C(C1CC1)n1c(=O)c(-c2ccco2)nc2ccccc21 (centres undefined) | 4.21 µM
29 | CSC(=Nc1ccccc1)N=C(SCc1ccccc1)N(C)C | 1.18 µM
30 | CC(C)c1ccc(N2C=Nc3ccc(C(C)C)cc3C2)cc1 | 7.98 µM
31 | C#CCN(C[C@@H]1[C@@H](OC(=O)NCCCCCC)[C@@H](OC(=O)NCCCCCC)Cn2c(=O)ccc(=O)n21)S(=O)(=O)c1ccc(C)cc1 | 5.99 µM
32 | CC(=O)Oc1c(Cl)c(N2CCOCC2)c(OC(C)=O)c2ccccc12 | 4.44 µM
33 | N#Cc1ccc(C(C(=O)NCc2ccccc2)n2c(=O)c(-c3ccco3)nc3ccccc32)cc1 (centres undefined) | 1.7 µM
34 | CC1=CC(C)(C)Nc2ccc(OC(=O)c3cccnc3)cc21 | 1.93 µM
35 | COc1ccc(C(C(=O)Nc2ccc3c(c2)OCCO3)n2c(=O)c(-c3ccco3)nc3ccccc32)cc1 (centres undefined) | 5.43 µM
36 | Cc1cccc(C)c1NC(=O)C(c1ccc(C#N)cc1)n1c(=O)c(-c2ccco2)nc2ccccc21 (centres undefined) | 2.66 µM
37 | CC(=O)Nc1ccc(S(=O)(=O)N2c3ccc(F)cc3CCC2C)cc1 (centres undefined) | inactive
38 | CCN(CC)CCNC(=O)c1ccc(NC(=O)c2cn(-c3ccccc3)nc2-c2cccs2)cc1 | inactive
39 | CC(=O)Oc1c(Br)cc(N(C(C)=O)S(=O)(=O)c2ccccc2)c2ccccc12 | 8.8 µM
40 | CCOC(=O)/C(=C\c1ccc(Cl)cc1)c1nc2sc(C)c(C)c2c(=O)[nH]1 | 0.525 µM
41 | CCCCCNC(=O)C(c1cc2ccccc2o1)n1c(=O)c(-c2ccco2)nc2ccccc21 (centres undefined) | 1.48 µM
42 | O=C(NCc1ccccc1)C(c1ccccc1F)n1c(=O)c(-c2ccco2)nc2ccccc21 (centres undefined) | 2.31 µM
43 | CCOC1=CC2=C(C(=O)C(Cl)=CC2=O)[C@@H]2CN(S(=O)(=O)c3ccc(C)cc3)[C@@H](c3ccccc3)[C@H]12 | 1.35 µM
44 | Cc1ccc(/C=C/C(=O)c2cc(Br)ccc2OC(=O)c2ccco2)cc1 | 0.684 µM
45 | CS(=O)(=O)c1ccc(C(=O)NCCN2C(=O)S/C(=C\c3cccnc3)C2=O)cc1[N+](=O)[O-] | 5.14 µM
46 | CN(C)CCCN(C(=O)CCc1ccccc1)c1nc2ccc(Cl)cc2s1 | 6.98 µM
47 | O=C(COc1ccccc1Cl)Nc1ccc(N2CCCC2)cc1 | > 39.9 µM (inactive)
48 | Cc1ccc(SC2=C(Sc3ccc(C)cc3)C(=O)c3ccccc3C2=O)cc1 | 6.71 µM
49 | O=C1NC(=O)N(c2ccccc2F)C(=O)/C1=C/c1ccc(Oc2ccc([N+](=O)[O-])cn2)cc1 | 2.73 µM
